Results reported in patent US10889581B2, “Cyclopropyl fused thiazine derivatives as beta-secretase inhibitors and methods of use” (AMGEN INC., priority 2016, dated 2021).

Assays:
human recombinant BACE2 = human recombinant BACE2 (Homo sapiens (Human), UniProt Q9Y5Z0); experiment: In vitro enzymatic BACE2 FRET assay; format: biochemical; conditions: pH 4.5, read-out: BACE2 Enzyme IC50
Recombinant CatD = Recombinant CatD (Homo sapiens (Human), UniProt P07339); experiment: In vitro enzymatic Cathepsin D (CatD) FRET assay; format: biochemical; conditions: pH 3.5, read-out: Cat D Enzyme IC50
Recombinant CatD, sequence (P07339 65-412): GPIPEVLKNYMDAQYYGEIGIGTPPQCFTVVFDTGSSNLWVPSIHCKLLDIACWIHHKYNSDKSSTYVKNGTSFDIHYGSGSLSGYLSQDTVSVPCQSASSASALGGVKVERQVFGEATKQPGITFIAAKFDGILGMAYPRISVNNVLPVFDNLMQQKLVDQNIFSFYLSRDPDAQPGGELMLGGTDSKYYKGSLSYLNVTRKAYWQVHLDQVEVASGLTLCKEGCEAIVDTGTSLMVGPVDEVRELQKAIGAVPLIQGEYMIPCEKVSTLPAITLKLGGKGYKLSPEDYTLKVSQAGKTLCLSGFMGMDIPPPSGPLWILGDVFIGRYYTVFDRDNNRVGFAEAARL

BACE1 [1] = biological target: T1, BACE1 (Homo sapiens (Human), UniProt P56817); experiment: In vitro enzymatic BACE1 FRET assay; format: biochemical; conditions: pH 4.5, read-out: BACE1 Enzyme IC50
Target sequence in this assay (P56817 46-501): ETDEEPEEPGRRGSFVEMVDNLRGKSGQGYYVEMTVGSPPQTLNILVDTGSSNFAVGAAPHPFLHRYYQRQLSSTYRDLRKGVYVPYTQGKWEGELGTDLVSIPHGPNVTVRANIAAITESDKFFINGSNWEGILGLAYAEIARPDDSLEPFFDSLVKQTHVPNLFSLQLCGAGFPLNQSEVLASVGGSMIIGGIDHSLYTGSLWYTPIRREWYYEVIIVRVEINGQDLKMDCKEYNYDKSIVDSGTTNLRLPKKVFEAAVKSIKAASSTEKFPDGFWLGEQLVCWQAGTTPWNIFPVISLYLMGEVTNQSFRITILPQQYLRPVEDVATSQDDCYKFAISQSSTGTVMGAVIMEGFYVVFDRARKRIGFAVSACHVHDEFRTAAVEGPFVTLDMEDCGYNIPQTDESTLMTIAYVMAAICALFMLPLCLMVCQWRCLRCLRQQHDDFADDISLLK

BACE1 [2] = biological target: T1, BACE1; experiment: In vitro BACE1 cell-based assay (Aβ40 in conditioned medium of cells stably expressing APP, HTRF)
Method: In Vitro BACE1 Cell-Based Assay
The cell-based assay measures inhibition or reduction of Aβ40 in conditioned medium of test compound treated cells expressing amyloid precursor protein. Cells stably expressing Amyloid Precursor Protein (APP) were plated at a density of 45K cells/well in 384 well plates (Corning/BioCoat 354663). The test compounds were then added to cells in 22-point dose response concentrations with the starting concentration being 62.5 μM. The compounds were diluted from stock solutions in DMSO and the final DMSO concentration of the test compounds on cells was 0.625%. The cells were cultivated overnight at 37° C. and 5% CO2 in DMEM supplemented with 10% FBS. After 24 h of incubation with the test compounds, the conditioned media was collected and the Aβ40 levels were determined using HTRF (Homogeneous Time Resolved Fluorescence). The IC50 of the compound was calculated from the percent of control or percent inhibition of Aβ40 as a function of the concentration of the test compound.
The HTRF to detect Aβ40 was performed in 384 well plates (Costar 3658). The antibody pair that were used to detect Aβ40 from cell supernatants were ConfAb40 antibody (Amgen in-house) and biotinylated 6E10 (BIOLEGEND). As an alternative to ConfAb40, a commercially available antibody, Anti-beta Amyloid 1-40 antibody [BDI350] from Abcam, Cambridge, Mass. 02139-1517 (Product code: ab20068), may be used in this assay. The concentrations were 0.35 μg/mL of ConfAb40 antibody and 1.33 μg/mL of 6E10-biotinylated antibody, as well as 4.5 μg/mL of Streptavidin Allophycocyanin Conjugate (ThermoFisher Scientific) in HTRF Buffer ([…], 1% BSA, 0.5% Tween 20).
The conditioned media was incubated with above antibodies and Streptavidin Allophycocyanin Conjugate for 30-60 minutes at 23° C. The final readout was performed on Envision from PerkinElmer.
Target sequence in this assay (P56817 46-501, species assumed): as the sequence (P56817 46-501) above

[3] = Aβ40, 24 h incubation, read-out: BACE1 Cell IC50

human recombinant BACE2, sequence (Q9Y5Z0 63-518): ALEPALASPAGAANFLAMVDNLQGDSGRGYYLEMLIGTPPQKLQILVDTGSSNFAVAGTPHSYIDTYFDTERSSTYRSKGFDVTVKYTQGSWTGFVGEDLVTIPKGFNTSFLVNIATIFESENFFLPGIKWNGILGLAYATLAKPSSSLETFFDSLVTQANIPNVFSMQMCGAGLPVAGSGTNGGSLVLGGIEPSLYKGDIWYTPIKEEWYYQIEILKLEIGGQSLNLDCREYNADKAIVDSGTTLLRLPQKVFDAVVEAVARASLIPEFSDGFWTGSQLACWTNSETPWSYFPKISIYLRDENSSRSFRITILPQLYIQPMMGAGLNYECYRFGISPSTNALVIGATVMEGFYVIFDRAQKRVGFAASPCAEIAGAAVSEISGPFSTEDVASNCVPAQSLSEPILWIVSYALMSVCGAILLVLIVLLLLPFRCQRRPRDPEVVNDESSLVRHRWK

SMILES: Cc1cc(C#N)cnc1C#Cc1cnc(F)c([C@@]2(C)N=C(N)S[C@@]3(C(=O)N4CCCC4)CC32)c1 (stereo partly drawn) [Example 137, 6-((5-((1S,5S)-3-amino-5-methyl-1-(pyrrolidine-1-carbonyl)-2-thia-4-azabicyclo[4.1.0]hept-3-en-5-yl)-6-fluoropyridin-3-yl)ethynyl)-5-methylnicotinonitrile]
- IC50 (human recombinant BACE2): 474 nM
- IC50 (Recombinant CatD): > 400000 nM
- IC50 (BACE1 [1]): 11 nM
- IC50 (BACE1 [2]): 35 nM

SMILES: CN(C)C(=O)/C=C/[C@]12C[C@H]1[C@@](CF)(c1cc(C#Cc3ccc(C#N)cn3)ccc1F)N=C(N)S2 [Example 112, (E)-3-((1R,5S,6S)-3-amino-5-(5-((5-cyanopyridin-2-yl)ethynyl)-2-fluorophenyl)-5-(fluoromethyl)-2-thia-4-azabicyclo[4.1.0]hept-3-en-1-yl)-N,N-dimethylacrylamide]
- IC50 (human recombinant BACE2): 1590 nM
- IC50 (Recombinant CatD): 176000 nM
- IC50 (BACE1 [1]): 25 nM
- IC50 (BACE1 [2]; [3]): 139 nM

SMILES: Cc1cc(C#N)cnc1C#Cc1ccc(F)c([C@@]2(CF)N=C(N)S[C@@]3(C(=O)N(C)C)C[C@H]32)c1 [Example 127, (1S,5S,6S)-3-amino-5-(5-((5-cyano-3-methylpyridin-2-yl)ethynyl)-2-fluorophenyl)-5-(fluoromethyl)-N,N-dimethyl-2-thia-4-azabicyclo[4.1.0]hept-3-ene-1-carboxamide]
- IC50 (human recombinant BACE2): 77 nM
- IC50 (Recombinant CatD): 969000 nM
- IC50 (BACE1 [1]): 2 nM
- IC50 (BACE1 [2]): 22 nM

SMILES: Cc1cc(C#N)cnc1C#Cc1ccc(F)c([C@@]2(C)N=C(N)S[C@@]3(C#N)C[C@H]32)c1 [Example 126, (1S,5S,6S)-3-amino-5-(5-((5-cyano-3-methylpyridin-2-yl)ethynyl)-2-fluorophenyl)-5-methyl-2-thia-4-azabicyclo[4.1.0]hept-3-ene-1-carbonitrile]
- IC50 (human recombinant BACE2): 617 nM
- IC50 (Recombinant CatD): 268000 nM
- IC50 (BACE1 [1]): 21 nM
- IC50 (BACE1 [2]; [3]): 75 nM

SMILES: C[C@]1(c2cc(C#Cc3ccc(C#N)cn3)cnc2F)N=C(N)S[C@@]2(CF)C[C@H]21 [Example 114, 6-((5-((1S,5S,6S)-3-amino-1-(fluoromethyl)-5-methyl-2-thia-4-azabicyclo[4.1.0]hept-3-en-5-yl)-6-fluoropyridin-3-yl)ethynyl)nicotinonitrile]
- IC50 (human recombinant BACE2): 3370 nM
- IC50 (Recombinant CatD): > 400000 nM
- IC50 (BACE1 [1]): 637 nM
- IC50 (BACE1 [2]; [3]): 677 nM

SMILES: C#Cc1ccc(F)c([C@@]2(C)N=C(N)S[C@@]3(C(=O)N(C)C)C[C@H]32)c1 [Example 123d, (1S,5S,6S)-3-amino-5-(5-ethynyl-2-fluorophenyl)-N,N,5-trimethyl-2-thia-4-azabicyclo[4.1.0]hept-3-ene-1-carboxamide]
- IC50 (human recombinant BACE2): 142 nM
- IC50 (Recombinant CatD): 50500 nM
- IC50 (BACE1 [1]): 378 nM
- IC50 (BACE1 [2]; [3]): 328 nM

SMILES: NC1=N[C@](CF)(c2cc(C#Cc3cc(Cl)ccn3)ccc2F)[C@@H]2C[C@]2(CF)S1 [Example 138, (1S,5S,6S)-5-(5-((4-chloropyridin-2-yl)ethynyl)-2-fluorophenyl)-1,5-bis(fluoromethyl)-2-thia-4-azabicyclo[4.1.0]hept-3-en-3-amine]
- IC50 (human recombinant BACE2): 77 nM
- IC50 (Recombinant CatD): 903000 nM
- IC50 (BACE1 [1]): 1120 nM
- IC50 (BACE1 [2]): 4850 nM

SMILES: N#Cc1cnc(C#Cc2ccc(F)c([C@@]3(CF)N=C(N)S[C@@]4(CF)C[C@H]43)c2)cn1 [Example 103, 5-((3-((1S,5S,6S)-3-amino-1,5-bis(fluoromethyl)-2-thia-4-azabicyclo[4.1.0]hept-3-en-5-yl)-4-fluorophenyl)ethynyl)pyrazine-2-carbonitrile]
- IC50 (human recombinant BACE2): 1590 nM
- IC50 (Recombinant CatD): 229000 nM
- IC50 (BACE1 [1]): 86 nM
- IC50 (BACE1 [2]; [3]): 3900 nM

SMILES: N#Cc1ccc(C#Cc2ccc(F)c([C@@]3(CF)N=C(N)S[C@@]4(/C=C/C(=O)N5CCOCC5)C[C@H]43)c2)cc1 [Example 122, 4-((3-((1R,5S,6S)-3-amino-5-(fluoromethyl)-1-((E)-3-morpholino-3-oxoprop-1-en-1-yl)-2-thia-4-azabicyclo[4.1.0]hept-3-en-5-yl)-4-fluorophenyl)ethynyl)benzonitrile]
- IC50 (human recombinant BACE2): 281 nM
- IC50 (Recombinant CatD): 84300 nM
- IC50 (BACE1 [1]): 10 nM
- IC50 (BACE1 [2]; [3]): 49 nM
